This passage reports logP results from the OPERA property sets (Mansouri et al. 2018).

`CCCNC(=O)c1cccs1` came in with a log partition coefficient (logP) of 1.68.
Consider `CNC(=O)c1ccsc1`, for which the log partition coefficient (logP) is 0.81.
As for `COc1cccs1`, the figure is 2.13.
The same measure for `CCNC(=O)c1ccsc1`: 1.18.
The same measure for `CCCOC(=O)c1ccsc1`: 3.03.
Turning to `CNC(=O)c1cccs1`, the logP was 0.84.
As for `COC(=O)c1cccs1`, the figure is 1.83; as for `Clc1ccsc1`, 2.55.
The same measure for `CCNC(=O)c1cccs1`: 1.18; for `CCCNC(=O)c1ccsc1`: 1.65.
The same measure for `CCCOC(=O)c1cccs1`: 3.01; for `CCOC(=O)c1ccsc1`: 2.32.

The term logP denotes a log measure of how a compound divides between an organic and an aqueous phase. Read a high logP as a more lipophilic compound.
